Results as given in patent US8399426B2, “Method for treating breast cancer using adenine nucleotide translocator 2 (ANT2) siRNA or ANT2 shRNA” (Bioinfra Inc., priority 2006, dated 2013).

What was measured:
MDA-MB-231 cell line = assay: Sensitivity to doxorubicin, CCK8 assay, MDA-MB-231; assay type: cell-based, human; conditions: MDA-MB-231, doxorubicin 10 μM to zero, 10 hrs, no ANT2 shRNA
Description: The MDA-MB-231 cell line which has a predominant proportion of progenitor cells (CD44+/CD24−) was treated with 10-fold serial dilutions of doxorubicin, a widely used anticancer agent starting from 10 μM to zero, followed by incubation (10 hrs). The assay was conducted in the same manner as in Example 6.

[1] = test system: breast cancer cell line MCF7; assay: Sensitivity to doxorubicin, CCK8 assay, MCF7; assay type: cell-based; conditions: MCF7 progenitor cells (CD44+/CD24−) vs mixed population
Description: The breast cancer cell line MCF7, which has a minor proportion of progenitor cells (CD44+/CD24−), was treated with various concentrations of doxorubicin, widely used for the treatment of breast cancer, after which apoptosis was quantitatively analyzed using a CCK8 assay.

MCF7 cells = assay: Sensitivity to TRAIL, CCK8 assay, MCF7; assay type: cell-based
Description: (§1) As breast cancer cell lines in this experiment, MCF7 resistant to TRAIL, and MDA-MB-231 highly sensitive to TRAIL were employed. MCF7 and MDA-MB-231 were treated with TRAIL at various concentrations after which cell death was analyzed with a CCK8 reagent. The CCK8 assay is a cell viability assay. Specifically, 100 μL of a cell suspension was placed onto each well (1×10^4 cells/well). The cells were treated with 10-fold serial dilutions of TRAIL starting from 1 μg/mL to zero, followed by incubation for 12 hrs. After the addition of 10 μL of the CCK8 reagent, the cells were incubated for a proper time (4 hours) in a CO2 incubator and measured for absorbance at 450 nm to analyze cell death.
However, the introduction of ANT2 shRNA into MCF7 cells induced apoptosis (−25%). […] As for a negative control, it was PBS for TRAIL, and sc shRNA (scrambled shRNA) for ANT2 shRNA.
After being treated with TRAIL alone, ANT2 shRNA alone, and TRAIL and ANT2 shRNA in combination, MCF7 cells, resistant to TRAIL, were examined for apoptosis, and the results are shown in FIG. 24C.
Furthermore, treatment with the p53 inhibitor (pifithrin-alpha) suppressed the up-regulation of TRAIL-mediated apoptosis by ANT2 shRNA, which confirmed that the introduction of ANT2 shRNA induced the expression and activity of p53, leading to an increase in sensitivity to TRAIL. The cell death was quantified using a CCK8 assay, with the use of PBS as a negative control for the p53 inhibitor (FIG. 28).

DR4, DR5, DcR1 and DcR2 = assay: Expression of TRAIL receptors by Western blots, MCF7; assay type: cell-based; conditions: MCF7, pre-treatment with p53 inhibitor
Description: The breast cancer cell lines MCF7 and MDA-MB-231, which are different in sensitivity to TRAIL from each other, were analyzed for expression levels of the receptors DR4, DR5, DcR1, and DcR2, all binding to TRAIL, by Western blots.
Upon the introduction of ANT2 shRNA, expression patterns of TRAIL receptors were examined, and the results are given in FIG. 26B. […] In T47D and BT474 cell lines, which are known to have TRAIL resistance, the same effects as in MCF7 were observed. That is, the introduction of ANT2 shRNA increased the expression of DR4 and DR5, but decreased the expression of DcR1 and DcR2 (FIG. 26C).
In addition, an experiment was performed to reconfirm that the introduction of ANT2 shRNA induces the expression and activity of p53, thus up-regulating the TRAIL receptors DR4 and DR5.

[2] = test system: breast cancer cells (MDA-MB-231); assay: Direct apoptosis, PI and Annexin V staining, FACS; assay type: cell-based, human; conditions: 48 hours from transfection
Description: To investigate whether apoptosis could induced directly by ANT2 siRNA, the present inventors performed staining with propidium iodide (PI) and Annexin V.
Particularly, the cells were transfected respectively with ANT2 siRNA and scrambled siRNA, followed by culture for 24-48 hours. The cells were washed with PBS, to which PI and Annexin V were added. After reaction at room temperature for 15 minutes, […] was measured by FACS.

MDA-MB-231 cells = assay: Sensitivity to TRAIL, CCK8 assay, MDA-MB-231; assay type: cell-based, human; conditions: MDA-MB-231, TRAIL at various concentrations, 12 hrs
Description: as §1

[3] = test system: breast cancer cell lines T47D and BT474; assay: Sensitivity to TRAIL, CCK8 assay, T47D and BT474; assay type: cell-based; conditions: T47D and BT474, TRAIL alone
Text: The same results as MCF7 were detected from the breast cancer cell lines T47D and BT474, both known to be resistant to TRAIL (FIG. 25A). For this, a CCK8 assay was employed to quantify the apoptosis.

[4] = test system: breast cancer cell lines T47D and BT474; assay: Western blots of apoptosis-induced proteins (PARP, caspase-8/9/7, Bid, cytochrome C); assay type: cell-based; conditions: TRAIL alone
Text: The increased sensitivity to TRAIL was reconfirmed to be attributed to the knockdown of ANT2 by shRNA. […] The empty vector pcDNA was introduced as a negative control for pcDNA-ANT2. When ANT2 shRNA increased sensitivity to TRAIL to induce apoptosis, the concurrent events of intracellular proteins (cleavage of PARP protein, cleavage of caspase-8/9/7, and truncation of Bid proteins) were detected by Western blots.
Because mitochondria play an important role in the regulation of apoptosis, cytochrome C, which is released from mitochondria to cytoplasm, was quantitatively monitored upon the ANT2 shRNA-triggered, TRAIL-mediated apoptosis. The mitochondrial protein COX IV was used as a loading control to guarantee the use of mitochondrial proteins in the same amount. No changes in the pattern of apoptosis-induced proteins were observed when TRAIL was used alone. […] These changes of intracellular protein patterns confirmed that ANT2 shRNA enhanced TRAIL-mediated apoptosis.

MCF7 tumor = assay: In vivo tumor growth of MCF7 transplanted into nude mice; RT-PCR of TRAIL receptors in tumors; set-up: species or system Balb/c nude mice; conditions: TRAIL alone, 10 mg/kg intraperitoneally, three treatments over 45 days
Description: The breast cancer cell line MCF7 resistant to TRAIL was transplanted into immunedeficient Balb/c nude mice. When a tumor grew to a volume of 100 mm^3, they were treated with ANT2 shRNA and TRAIL. In this regard, TRAIL was intraperitoneally injected (10 mg/kg) while ANT2 shRNA was directly injected into the tumor (100 μg; supplemented 200 μl Lipofectamine™2000). At this time, Lipofectamine™2000 was used to deliver ANT2 shRNA into tumor cells. After three treatments over 45 days, the size of tumor was monitored. A same volume of PBS and sc shRNA was used as respective negative controls for TRAIL and […]. On 45th day, the animal models were subjected to euthanasia and the tumors were excised.

Question: `COc1cccc2c1C(=O)c1c(O)c3c(c(O)c1C2=O)C[C@@](O)(C(=O)CO)C[C@@H]3O[C@H]1C[C@H](N)[C@H](O)[C@H](C)O1` [doxorubicin] was tested. Which sensitivity to doxorubicin (MDA-MB-231 cell line) did it give?
Answer: The sensitivity to doxorubicin was “neither progenitor cells (CD44+/CD24−) nor the non-progenitor cells were sensitive”.

Question: And the sensitivity to doxorubicin [1]?
Answer: The sensitivity to doxorubicin was “less sensitive”.

Question: For `Cc1ccc(C(=O)Cn2c3c(sc2=N)CCCC3)cc1` [pifithrin-alpha, reference compound], which “up-regulation of TRAIL-mediated apoptosis by ANT2 shRNA” value (MCF7 cells; MCF7, treatment with p53 inhibitor, CCK8) is on record?
Answer: The value was “suppressed”.

Question: And the “up-regulation of DR4 and DR5 by ANT2 shRNA” value (DR4, DR5, DcR1 and DcR2)?
Answer: The value was “suppressed”.

Question: Which “apoptosis, comparison among ANT2 siRNA, ANT2 siRNA-2 and ANT2 siRNA-3” value [2] does the source give for “ANT2 siRNA-2: ANT2 siRNA for comparison, SEQ ID NO: 14, 5′-CUGACAUCAUGUACACAGG-3′ (listed as RNA, chemistry not given here)” here?
Answer: Its value is “consistent”.

Question: For “ANT2 siRNA-3: ANT2 siRNA for comparison, SEQ ID NO: 15, 5′-GAUUGCUCGUGAUGAAGGA-3′ (listed as RNA, chemistry not given here)”, which “apoptosis, comparison among ANT2 siRNA, ANT2 siRNA-2 and ANT2 siRNA-3” value [2] is on record?
Answer: Its value is “consistent”.

B1: TRAIL: TRAIL/apo2 ligand, a member of tumor necrosis factor, can selectively kill cancer cells (protein, UniProt P50591 1-281, looked up)
Tumor necrosis factor ligand …: MAMMEVQGGPSLGQTCVLIVIFTVLLQSLCVAVTYVYFTNELKQMQDKYSKSGIACFLKEDDSYWDPNDEESMNSPCWQVKWQLRQLVRKMILRTSEETISTVQEKQQNISPLVRERGPQRVAAHITGTRGRSNTLSSPNSKNEKALGRKINSWESSRSGHSFLSNLHLRNGELVIHEKGFYYIYSQTYFRFQEEIKENTKNDKQMVQYIYKYTSYPDPILLMKSARNSCWSKDAEYGLYSIYQGGIFELKENDRIFVSVTNEHLIDMDHEASFFGAFLVG
Question: B1 was tested. Which apoptosis (MCF7 cells; MCF7, TRAIL 100 ng/mL) did it give?
Answer: Its apoptosis is “not induced to undergo apoptosis”.

Question: And the TRAIL-mediated apoptosis (MCF7 cells; MCF7, TRAIL at various concentrations, 12 hrs)?
Answer: Its TRAIL-mediated apoptosis is “did not work”.

Question: What about the TRAIL-mediated apoptosis (MDA-MB-231 cells) of the same molecule?
Answer: The TRAIL-mediated apoptosis was “induced”.

Question: What about the “response to TRAIL” value [3] of the same molecule?
Answer: Its value is “resistant”.

Question: And the “changes in the pattern of apoptosis-induced proteins” value [4]?
Answer: The value was “No changes”.

Question: And the tumor growth (MCF7 tumor)?
Answer: The tumor growth was “no significant influences”.
